The values that follow come from patent publication US8889662B2, “Method to alter sex ratios in avian offspring” (University of Georgia Research Foundation, Inc., priority 2009, dated 2014).

Data set [1] deals with zebra finch (Taeniopygia guttata). Nature of the data set: Example 2: disruption of ovulation, oviposition and embryo development after injection, zebra finches. Format: in vivo. Conditions: 20 ug injection, relative to control and uninjected groups. How it is done:
(§1) Zebra finch (Taeniopygia guttata) pairs obtained from a breeding colony maintained at The University of Georgia were housed in individual cages and provided feed and water ad libidumn. Birds were kept under a 14 hour (h) light (L):10 h dark (D) light schedule. Egg-laying was monitored daily and eggs marked to record sequence order. Females were injected intraperitoneally after the first or second egg of the clutch was laid with one of three treatments: 20 μg of CORT dissolved in 50 μl peanut oil and 10% ethanol (CORT), 20 μg of progesterone dissolved in […] and 10% ethanol (P), or 50 μl of control peanut oil (C). A fourth set of females received no injection treatment (UN). […] The follicle ovulating 5 hours after injection, was laid approximately 36 hours after injection (FIG. 3). Ovulating follicles exposed to treatments were laid as the 3rd or 4th egg in the sequence (3rd egg if treatment was administered on the day the 1st egg was laid and the 4th egg in the sequence if treatment was administered on the day the 2nd egg was laid). Eggs were allowed to incubate in the nest for 8-12 days prior to collection to allow sufficient embryonic development for DNA extraction and molecular sexing analyses. Occasionally these treatments disrupted the oviposition immediately following the injection. Females that delayed oviposition after treatment were excluded from analysis because it was not possible to determine whether the egg collected the following day was from the ovulation event that occurred immediately following injection or from a delayed oviposition of the follicle ovulated the day prior to injection. Females that delayed oviposition were allowed to complete the clutch after which the treatment was repeated during the next clutch. […] Only 1/10 females treated with progesterone laid successfully. For this reason, progesterone treatments were eliminated from further analyses.

A short description of data set [2]: Testosterone concentrations after a pharmacological dose of CORT (Examples 1 and 2). Format: in vivo, zebra finches. Particulars: within 1-3 hours of administration.
Data set [3] is described as follows: Example 1: plasma CORT radioimmunoassay after injection, zebra finches. The data set is classed as in vivo, zebra finch (Taeniopygia guttata). Conditions: female zebra finches. How it is done: (§2) This experiment was conducted to determine whether a single injection of CORT at the critical time of sex chromosome segregation is sufficient to skew offspring sex ratios towards females. Female zebra finches were monitored for signs of nest-building and egg-laying. Approximately 19 h following the appearance of the first egg (1 h before sex chromosome segregation), females received one of two treatments: (1) a high dose of CORT (20 ug in 50 ul peanut oil), or (2) a control treatment (50 ul peanut oil). Because oviposition and ovulation are nearly concurrent, ovulation of the second egg took place when the first egg was laid. Thus, the egg that would be affected by our treatment was the third egg in the sequence. Eggs were labeled as they were laid and were collected after 6 d of incubation for molecular sexing analysis as described above. The percentage of females producing male offspring in each group were calculated and compared using chi square analyses. Blood samples were taken from a subset of females 1 h and 2.5 h post injection to verify that the CORT injection did, in fact, elevate circulating maternal CORT concentrations. CORT was quantified using a standard radioimmunoassay and CORT concentrations were log transformed and analyzed using an analysis of variance (ANOVA).

Data set [4] in a line: Example 1: plasma CORT radioimmunoassay after injection, chickens. The data set is classed as in vivo, chicken. Conditions: hens. Here is the method: Approximately 19 h following the appearance of a mid-sequence egg, females received one of three treatments: (1) a high dose of CORT (2 mg in 0.5 ml peanut oil), (2) a control treatment (0.5 ml peanut oil), or (3) no injection treatment. The egg corresponding to the next ovulation event was labeled, collected, and incubated at 37° C. for a period of 7 days to allow for embryonic development. Embryos were separated and sexed using PCR based techniques as described above. The percentage of females producing male offspring in each group were calculated and compared using chi square analyses. Also, as described above, blood samples were taken from a subset of females one hour and four hours after injection to verify that the CORT treatment did, in fact, elevate maternal CORT concentrations at the time of meiotic segregation. CORT was quantified using a standard radioimmunoassay and CORT concentrations were log transformed and analyzed using an analysis of variance (ANOVA).

Data set [5] relates to Hyline W-36 and Brown layer hens. Nature of the data set: Example 3: ovulation and oviposition rates after injection, laying hens. Format: in vivo, chicken. Particulars: 1.5 mg subcutaneously. How it is done: Injection treatments were administered to hens subcutaneously in the back of the neck five hours prior to the predicted time of ovulation with one of the following treatments: 0.5 ml of control peanut oil (CONT) or 1.5 mg corticosterone dissolved in 0.5 ml of peanut oil (CORT). Ovulated follicles took 24 h to pass through the remainder of the reproductive tract and were collected at oviposition (FIG. 6). Eggs were also collected on the day prior to injections and were considered the unmanipulated group (UN). […] Eggs were incubated for 10 days at 37.5° C. and 58% relative humidity in a Natureform incubator.

For the next data set, the system named is avian species. Particulars: long-term silastic implants, literature; cited from earlier work.
Data set [6] relates to zebra finch (Taeniopygia guttata). Description: Example 1: offspring sex after a single maternal CORT injection at sex chromosome segregation, zebra finches. The data set is classed as in vivo. Particulars: 20 ug CORT about 19 h after first egg, third egg of sequence, control injected 46%. Here is the method: as §2
Data set [7] shares this test system. Nature of the data set: Example 2: primary sex ratio after hormone injection five hours before ovulation, zebra finches. Format: in vivo. Here is the method: as §1
Molecular Sexing. Genomic DNA was extracted from embryonic tissue using a standard salt extraction method (Lambert et al., 2000, Journal of Neuroscience Methods; 95:127-132). Portions of the W-linked avian CHD (CHD-W) on females and its non W-linked homologue (CHD-Z) were amplified using polymerase chain reaction (PCR) with primers P2 and P8 (Griffiths et al., 1998, Mol Ecol; 7:1071-1075). […] The presence of the W chromosome was determined through the visualization of two bands while males were identified when only one band was produced.
Twenty-one target embryos were successfully sexed from control females, 16 from non-injected females, and 18 from CORT treated females. […] Differences in the number of females that produced males was analyzed among treatment groups by performing a logistic regression in StatView (SAS Institute, Cary, N.C. USA) using sex as the response variable (male=1). […]

Turning to `C[C@]12C[C@H](O)[C@H]3[C@@H](CCC4=CC(=O)CC[C@@]43C)[C@@H]1CC[C@@H]2C(=O)CO` [corticosterone], the results for the “effect on oviposition, ovulation or visible development” value in data set [1] (listed as CORT) and in data set [1] (listed as Corticosterone) were “not more likely to occur” and “did not adversely affect oviposition or ovulation”, respectively. The “testosterone concentrations after CORT” value in data set [2] is given as “testosterone concentrations increased significantly”. Besides, the “circulating CORT concentrations compared to controls” value in data set [3] (20 ug CORT in 50 ul peanut oil, within 1 h of injection, p<0.0001) is “significantly increased circulating CORT concentrations”; in data set [3] (20 ug CORT, 2.5 h post-injection, p=0.08), “remained higher in the CORT treated females 2.5 h post-injection, but not significantly so”; in data set [4] (2 mg CORT in 0.5 ml peanut oil, within one hour of injection, p<0.0001), “significantly increased circulating CORT concentrations”; in data set [4] (2 mg CORT, four hours post-injection) it was “This difference disappeared”. Moreover, the “effect on ovulation or oviposition rates” value in data set [5] is recorded as “Neither the control nor the corticosterone treatment had an effect on ovulation or oviposition rates”. Besides, the “offspring sex ratio with long-term CORT elevation” value in the data set with avian species is recorded as “sex ratios were skewed significantly towards females”. Further, the “eggs that were male (primary sex ratio)” value in data set [6] is given as 71%. The “males produced (primary sex ratio)” value in data set [7] (20 ug intraperitoneally five hours before ovulation, 3rd or 4th egg, control injected 61.9%, uninjected 37.5%) is recorded as 72%. Besides, in data set [7] (20 ug, no significant difference from control injected females), the “male embryos produced compared to non-manipulated females (FIG. 5 legend)” value is recorded as “produced significantly more male embryos”. Further, the Proportion male in data set [7] (eggs laid before treatment by the same treatment group (baseline)) came to 0.4375; in data set [7] (target eggs (Treatment), 20 ug) it was 0.72.
